This assay addresses T1, rat AT1aR (Rattus norvegicus, UniProt P25095).
T1 construct: ProLink (β-galactosidase enzyme-donor fragment, from the pCMV-ProLink vector)
T1 sequence (P25095 1-359): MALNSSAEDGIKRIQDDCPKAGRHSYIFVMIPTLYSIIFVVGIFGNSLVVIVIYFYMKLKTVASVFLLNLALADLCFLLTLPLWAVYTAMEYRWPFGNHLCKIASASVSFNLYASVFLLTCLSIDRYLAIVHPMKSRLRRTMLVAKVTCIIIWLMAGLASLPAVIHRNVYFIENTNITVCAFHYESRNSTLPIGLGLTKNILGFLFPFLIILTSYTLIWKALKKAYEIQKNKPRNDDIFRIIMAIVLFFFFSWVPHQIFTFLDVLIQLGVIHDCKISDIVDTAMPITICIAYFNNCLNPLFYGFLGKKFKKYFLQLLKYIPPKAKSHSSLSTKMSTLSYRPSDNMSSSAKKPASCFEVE
Briefly: PathHunter β-arrestin-2 recruitment assay, rat AT1aR. Conditions: PathHunter β-arrestin HEK293 cells, inactive = EC50 greater than 10 uM. It is filed as cell-based. For orientation: Activated receptors often draw arrestin, which recruitment assays turn into a signal.

Structures are written as SMILES.

Procedure: B-arrestin-2 recruitment to the human and rat angiotensin 2 type 1 receptor (human AT1R and rat AT1aR, respectively) was measured with the PathHunter™ β-arrestin assay (DiscoveRx Corporation, Fremont CA). Cells, plasmid(s), and detection reagent(s) were purchased from DiscoveRx, and assays were performed per the manufacturer's instructions. Human AT1R and rat AT1aR were cloned into the pCMV-ProLink vector, verified by sequencing, and transfected into PathHunter β-arrestin HEK293 cells. Stably transfected clonal cell lines were selected with Hygromycin and G418. These clonal cell lines were used for all experiments.
For assays, 25,000 cells were seeded per well in 96-well microplates in volumes of 90 μL and allowed to grow overnight at 37° C. in 5% CO2. Peptides provided herein were dissolved in deionized water to a concentration of 1 mM. Peptides were then further diluted in assay buffer (Hank's balanced salt solution with 20 mM HEPES) to add peptide to the cells to reach final concentrations ranging from 10 μM to 1 pM. […]
The microplates were then incubated at room temperature for 60 minutes, and then luminescence was measured using a NOVOstar microplate reader purchased from BMG Labtech. B-arrestin-2 recruitment to receptors was measured as relative luminescence intensity expressed in arbitrary units.

Take `CCCCC(=O)N(Cc1ccc(-c2ccccc2-c2nnn[nH]2)cc1)[C@H](C(=O)O)C(C)C` [Valsartan]: the “rat AT1aR b-arrestin2 EC50 (M)” value is “inactive”.

Values taken from patent US20240025949A1, “Beta-Arrestin Effectors and Compositions and Methods of Use Thereof” (Trevena, Inc., priority 2021, published 2024).
